Results from publication PMC4848905, “Fragment Screening of Human Aquaporin 1” (International Journal of Molecular Sciences, 2016).
Read-outs that look alike come from different tables or passages of the source.

T1: hAQP1 (Homo sapiens, UniProt P29972)
T1 construct: made in house; host or cells: Spodoptera frugiperda (Sf9) insect cells, baculovirus vector pFB-LIC-Bse
T1 sequence (P29972 1-269): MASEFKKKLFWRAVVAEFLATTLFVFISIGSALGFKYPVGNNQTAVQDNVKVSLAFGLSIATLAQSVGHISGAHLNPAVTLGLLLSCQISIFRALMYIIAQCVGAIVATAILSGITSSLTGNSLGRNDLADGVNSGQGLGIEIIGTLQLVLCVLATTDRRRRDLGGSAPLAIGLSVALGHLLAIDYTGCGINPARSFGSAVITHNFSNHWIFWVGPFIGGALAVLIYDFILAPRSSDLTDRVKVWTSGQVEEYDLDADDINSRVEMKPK

T2: E. coli aquaporin Z (E. coli), P60844
T2 chain: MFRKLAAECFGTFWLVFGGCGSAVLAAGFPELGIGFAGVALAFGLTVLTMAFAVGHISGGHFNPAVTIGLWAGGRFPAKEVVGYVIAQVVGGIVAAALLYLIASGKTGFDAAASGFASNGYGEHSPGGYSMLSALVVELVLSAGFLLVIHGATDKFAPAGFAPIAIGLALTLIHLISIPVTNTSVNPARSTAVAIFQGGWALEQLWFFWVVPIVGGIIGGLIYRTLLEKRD


Legend:
hAQP1 [1] = target: T1, hAQP1; assay: Surface plasmon resonance (SPR) fragment binding to immobilized hAQP1; conditions: for SPR binding behaviour: sensorgrams 6.25 to 800 µM
Protocol: Surface Plasmon Resonance measurements were performed using Biacore T-200 (GE Healthcare, Uppsala, Sweden) using the running buffer PBS pH 7.4 supplemented with 1% OG and 5% dimethylsulfoxide (DMSO) at 25 °C. Purified recombinant hAQP1 was directly immobilized onto Biacore Sensor Chip CM5 Research Grade (GE Healthcare, Little Chalfont, UK) using standard amine-coupling chemistry at a flow rate of 5 µL/min. Carboxyl derivatives on CM5 dextran surface were activated with a 10-min 1:1 mixture of 0.2 M N-ethyl-N′-(3-([…])propyl)carbodiimide (EDC) and 50 mM N-hydroxysuccinimide (NHS). The aquaporins were diluted in 10 mM sodium acetate, pH 5.0 and injected across the surface separately. Addition of 0.5 M ethanolamine–HCl at pH 8.5 for 10 min was used to block unreacted activated carboxyl derivates.
The Maybridge Ro3 Diversity Fragment Library (Thermo Fisher Scientific, Waltham, MA, USA) consisting of 1500 fragments was used for screening. These fragments have molecular weight ranging from 82.1 to 295.3 Da, with an experimental guarantee of solubility of ≥1 mM in aqueous phosphate buffer and ≥200 mM in DMSO. They satisfy the “rule of three” criteria, i.e., a molecular weight of ≤300 Da, a cLogP of ≤3.0, ≤3 H-bond acceptors or H-bond donors, ≤3 rotatable bonds, and a polar surface area of ≤60 Å^2. Lyophilized powder of each fragments were pre-dissolved in 100% DMSO prior to the screening campaign. A volume of 10 µL of a 4 mM stock solution of each fragment in 100% DMSO was added to 190 µL of a buffer composed of 1.06 × PBS + 1.06% OG so as to obtain a final fragment concentration of 200 µM in PBS + 1% OG + 5% DMSO in a volume of 200 µL. We note that although a higher screening concentration in the mM range would in principle result in higher protein surface occupancy, allowing the detection of weaker interactions, this may also increase the probability of non-specific binding and/or promiscuously binding colloidal aggregates. In addition, the presence of salt and detergent in the buffer helps to stabilize the hAQP1 and also reduces the chances of non-specific binding. The DMSO solvent has a high refractive index and can be a major cause of false positives and plate-to-plate baseline variations. Therefore, it was important to accurately match its concentration in the sample buffer and the running buffer throughout the screening to minimize data inconsistencies during analysis.
The fragments were injected across a reference channel and hAQP1 channel for 2 min at flow rate of 30 µL/min, and then allowed to dissociate in running buffer for another min. Each fragment was injected in duplicates. DMSO calibration was performed for DMSO correction. Reproducibility was monitored with duplicate injections of each sample. No regeneration step was necessary as all fragments were dissociated. Previously validated positive controls, NSC226080 and NSC624169 (not shown), were included over the course of screening to monitor the surface protein activity.
These fragments, together with the positive controls, were diluted into 25, 50, 100 and 200 µM and tested over the same surfaces under the same conditions. DMSO calibration was performed for DMSO correction. Non-stoichiometric binders (potential fragments that aggregate, precipitate, binding non-specifically, etc.) were excluded. Good binders were assayed in a broader concentration range from 6.25 to 800 µM in 2-fold dilutions under the same conditions.
Raw sensorgrams were corrected for DMSO and double referenced (subtraction of the reference flow cell followed by subtraction of the closest buffer blank), which responses were corrected with a reference flow cell and a blank buffer injections. Corrected sensorgrams were y-axis and x-axis corrected at the point of fragment injection. Responses for the varied concentrations for a fragment were overlaid. […]

hAQP1 [2] = target: T1, hAQP1; assay: Thermal aggregation shift assay (differential static light scattering, DSLS); assay type: binding; design: key to ΔTagg (+/−): positive (+) Thermal Shift; ΔTagg (+/−); conditions: for ΔTagg (+/−): 1 mM of each fragment; for Tagg: hAQP1 incubated in 1 mM of fragment, hAQP1 alone 54.6 ± 0.1; for dose-dependency of hAQP1 stabilization: increasing concentration of fragment; for Tagg of hAQP1: secondary dose-response assay
Protocol: Temperature-dependent protein aggregation was measured with static light scattering (Stargazer-384, Harbinger Biotech, Markham, ON, Canada) as previously described with modifications. Briefly, purified hAQP1 in PBS pH 7.4 and 1% OG at a concentration of 0.2 mg/mL, incubated with test compound or fragment at the appropriate concentration at room temperature for 15 min, and aliquoted in a clear-bottom 384-well plate (Nunc, Roskilde, Denmark) to a volume of 45 µL in triplicate. The final concentration of DMSO was kept at 5%. Mineral oil (45 µL) covered the sample to prevent evaporation. The sample was heated from 25 to 80 °C at a rate of 1 °C per minute. Incident light was shone on the protein drop from beneath at a 30° angle, and a CCD camera was used to measure the scattered light intensity every 30 s to monitor protein aggregation. Data collated was analyzed using the Bioactive software (Harbinger Biotech). Intensities were plotted as a function of temperature and fitted to the Boltzmann equation by non-linear regression. The point of inflection of the fitted curve defined the temperature of aggregation (Tagg).

human red blood cells = assay: Stopped-flow water permeability assay using human red blood cells; assay type: cell-based; conditions: tested at 1 mM
Protocol: As indicated in the introduction, the binders found should not necessarily show inhibition. Nevertheless, we performed stopped-flow assays to test the effects of the seven fragments in Figure 6 on hAQP1 water permeability using human red blood cells. Based on the values of the rate constants of the scattering increase, none of these fragments produced a significant reduction in water permeability when tested at 1 mM (not shown). Several factors may account for this. […] In addition, hAQP1 in red blood cells is highly glycosylated compared to the hAQP1 purified from insect cells, and this may affect binding affinity. Another factor is the orientation of the protein in the membrane, as in theory only one side of the protein (extracellular) is exposed to the drug in RBC assays, whereas both extramembrane domains are exposed when the protein is solubilized in micelles. Another factor, also noted by Seeliger et al., is the high density of AQP1 at the membrane of red blood cells. […] We are at present unable to explain this behavior or relate it to inhibition of hAQP1.

hAQP1 [3] = target: T1, hAQP1; assay: Stopped-flow water permeability assay of hAQP1 proteoliposomes; assay type: biochemical
Protocol: Liposomes used in this work were prepared using film rehydration. In this procedure, a thin lipid film of Escherichia coli lipids is formed by drying under a nitrogen stream lipid extract powder (Avanti Polar Lipids Inc., Alabaster, AL, USA) in chloroform. After at least 2 h in a vacuum desiccator, purified aquaporin protein in detergent was added and supplemented with reconstitution buffer (20 mM Tris–HCl pH 8.0) to obtain a protein-to-lipid molar ratio of 1:400. A volume of 1 mL of this reconstitution mixture was incubated for 1 h at room temperature. Uniform sized liposomes were obtained by extrusion through a 400 nm pore-size polycarbonate membrane using an Avestin extruder. […]
The water permeability of proteoliposomes reconstituted with purified aquaporin was determined in a SX20 stopped-flow spectrometer (Applied Photophysics, Leatherhead, UK) with a dead time of 1.1 ms. […] The solution osmolarities were measured using a vapor pressure osmometer (Wescor, Logan, UT, USA). […] The measured average diameter of control liposomes and hAQP1-proteoliposomes were 368 and 262 nm, respectively.
Data was acquired by the Pro-Data SX software and analyzed by Pro-Data Viewer software (Applied Photophysics), where the measured light scattering intensity signals were fitted to an exponential function to obtain the rate constants. […]

[4] = target: T2, E. coli aquaporin Z (E. coli), P60844; assay: native gel or EMSA; blue-native PAGE (4%-16% Bis-Tris gel, 4 °C) of purified protein in sample buffer with 100 mM OG, 750 mM aminocaproic acid, 50 mM Bis-Tris HCl pH 7.0, 0.5 mM EDTA; conditions: remark: other sources report otherwise
[5] = 1:1 steady-state binding model, 6.25 to 800 µM in 2-fold dilutions, 25 °C, read-out: SPR (KD)
[6] = inset table of the Figure 5 sensorgram, read-out: KD (inset table)

Molecule	Kd (hAQP1 [1]; [5])	Kd (hAQP1 [1]; [6])	ΔTagg (+/−) (hAQP1 [2])	SPR binding behaviour (hAQP1 [1])	Tagg (hAQP1 [2])	other results
OCc1cccc(-c2ccco2)c1 [CC46109]	982 µM	982 µM	+			amplitude of the stopped-flow traces (human red blood cells): large amplitude reduction in the traces
Nc1snnc1-c1ccc(C(F)(F)F)cc1 [MO00656]	> 800 µM		−	fast-on, fast-off kinetics	51.8 °C	
O=Nc1c(O)ccc2ccccc12 [AC15153]	337 µM	337 µM				
NCCNCc1ccccc1 [SB01744]			+		58.7 ± 0.2 °C	dose-dependency of hAQP1 stabilization (hAQP1 [2]): could not be interpreted due to inconsistencies in the results
NCc1ccc(-c2ccc(C(F)(F)F)cn2)cc1 [CC53013]	1310 µM	1310 µM	−	fast-on, fast-off kinetics	48.6 °C	
[Cl][Hg][Cl] [HgCl2, mercuric chloride]						average fitted rate constant (k) (hAQP1 [3]; 300 µM, 23 °C, means ± S.E., n = 6, without inhibitor 109.4 (±1.9)): 8.56 (±0.03) s^−1; osmotic water permeability coefficient (Pf) (hAQP1 [3]; proteoliposomes pre-incubated with 300 µM, without inhibitor Pf = 0.053): 0.0041 cm/s
Cc1cc2cc(N)ccc2[nH]1 [AC34875]	225 µM	225 µM	−	binding did not achieve saturation equilibrium at higher concentrations	50.9 °C	
NCc1cccc(N2CCCCC2)n1 [CC38113]	62 µM	62.2 µM	+		63.3 ± 0.1 °C	amplitude of the stopped-flow traces (human red blood cells): large amplitude reduction in the traces
c1ccc2c(c1)CCNCC2 [MO08607]	962 µM	962 µM	+		59.0 ± 0.3 °C	dose-dependency of hAQP1 stabilization (hAQP1 [2]): can be considered a true binder; Tagg of hAQP1 (hAQP1 [2]; 50 μM): 61.8 ± 0.6 °C; Tagg of hAQP1 (hAQP1 [2]; 400 µM): 66.3 ± 0.1 °C; Tagg of hAQP1 (hAQP1 [2]; 2000 µM): 86.7 ± 7.2 °C
NCCNc1cccc2ccccc12 [AC42399]	546 µM		−	fast-on, fast-off kinetics	48.0 °C	
Nc1cccc(CN2CCCC2)c1 [CC55714]			+		63.6 ± 0.4 °C	
CNCc1scc2c1OCCO2 [CC47846]			+		70.0 ± 1.2 °C	
Nc1ccc2c(c1)OCCO2 [SB00353]	902 µM	902 µM	−		51.1 °C	
NCCc1coc2ccccc12 [CC40813]			−	binding did not achieve saturation equilibrium at higher concentrations	50.3 °C	Kd (hAQP1 [1]; KD (inset table), inset table of the Figure 5 sensorgram): 133 µM; Kd (hAQP1 [1]; SPR (KD), 1:1 steady-state binding model, 6.25 to 800 µM in 2-fold dilutions, 25 °C): 133 µM
OC1CCCNC1 (stereo not shown) [AC36708]			+		62.9 ± 0.4 °C	
E. coli aquaporin Z, P60844 1-231 (natural protein) MFRKLAAECFGTFWLVFGGCGSAVLAAGFPELGIGFAGVALAFGLTVLTMAFAVGHISGGHFNPAVTIGLWAGGRFPAKEVVGYVIAQVVGGIVAAALLYLIASGKTGFDAAASGFASNGYGEHSPGGYSMLSALVVELVLSAGFLLVIHGATDKFAPAGFAPIAIGLALTLIHLISIPVTNTSVNPARSTAVAIFQGGWALEQLWFFWVVPIVGGIIGGLIYRTLLEKRD						stoichiometry N [4]: 8
